Experimental data taken from patent publication US20250051300A1, “GRAM-NEGATIVE SPECIFIC ANTIBIOTICS SPARING EFFECT ON GUT MICROBIOME” (THE BOARD OF TRUSTEES OF THE UNIVERSITY OF ILLINOIS, priority 2021, published 2025).
In brackets after ≈: the same amount, converted by molar mass. Read-outs that look alike come from different tables or passages of the source.

Experiments:
[1] = tested on: Escherichia coli; assay: MIC, micro-dilution broth method (CLSI); format: cell-based
[2] = tested on: Enterobacter cloacae; assay: MIC, micro-dilution broth method (CLSI); format: cell-based
[3] = Aqueous solubility limit; format: physicochemical; conditions: cation-adjusted Mueller Hinton broth (MIC assay medium); limit to which compounds were tested in MIC assays
[4] = tested on: Escherichia coli; assay: Resistance frequency, large inoculum method; format: cell-based; conditions: E. coli ΔtolC JW5503, 32×MIC
Experimental: Selection of resistant mutants. Resistant mutants were selected using the large inoculum method. Briefly, E. coli BW25113, K. pneumoniae ATCC 27736, or E. cloacae ATCC 29893 (˜1.0×10^7 c.f.u.) was plated on 100-mm plates of Luria Bertani agar containing 8, 16, 32, or 64 μg/mL, lolamycin. For E. coli ΔtolC (JW5503), ˜1.0×10^7 c.f.u. was plated on 100-mm plates of Luria Bertani agar containing 0.063, 0.13, 0.25, 0.5 μg/mL lolamycin. Colonies were visible after incubating at 37° C. for 48 h. Resistant colonies were confirmed by growing colonies in selective media with the same concentration of lolamycin.

[5] = Mouse maximum tolerated dose / tolerability; format: in vivo; conditions: IP
Experimental: Mouse maximum tolerated dose (MTD) of compound 2 and lolamycin. […] In these studies, 10- to 12-week-old female C57BL/6 mice purchased from Charles River Laboratories were used. The maximum tolerated dose (MTD) of a single compound via IP injection was determined first. Compound 2 and lolamycin were formulated in 50% DMSO, 50% PEG400. Compound 2 and lolamycin were given by intraperitoneal (IP) injection. All the mice were monitored for signs of toxicity for 2 weeks. For multiple doses, the compound was given by daily IP injection for 5 consecutive days and the mice were monitored for signs of toxicity for 1 month. The MTD was the highest dosage with acceptable toxicity (for example, <20% weight loss).
Next, the MTD of lolamycin via oral gavage was determined. Lolamycin was formulated in 20% DMSO, 30% Water, and 50% PEG400. Lolamycin was given via oral gavage. All the mice were monitored for signs of toxicity for 2 weeks. For multiple doses, compound was given twice daily orally for 3 consecutive days and the mice were monitored for signs of toxicity. The MTD was the highest dosage with acceptable toxicity (for example, <20% weight loss). […] The MTD of lolamycin was used to inform the dosing schedule used in subsequent efficacy studies.

[6] = tested on: E. coli AR0349; assay: Bacterial sepsis survival model; format: in vivo, CD-1 mice; conditions: 100 mg/kg IP twice daily for 3 days
[7] = tested on: clinical isolates of E. coli, K. pneumoniae, and E. cloacae; assay: Susceptibility of panel of multidrug-resistant clinical isolates

## Fc1ccc(COc2cccc(-c3n[nH]cc3-c3ccncc3)c2)cc1 [Compound 2, 4-(3-(3-((4-fluorobenzyl)oxy)phenyl)-1H-pyrazol-4-yl)pyridine]
[1]; E. coli AR-0349 (colistin-resistant clinical isolate)
  MIC: >32 µg/mL
[1]; E. coli AR-0549
  MIC: >32 µg/mL
[1]; Escherichia coli, ATCC25922, E. coli ATCC 25922, read-out: MIC
  MIC: 8 µg/mL (≈ 23.2 µM)
[1]; Escherichia coli, ATCCBAA2340, E. coli ATCC BAA-2340, read-out: MIC
  MIC: > 32 µg/mL
[1]; Escherichia coli, ATCCBAA2469, E. coli ATCC BAA-2469, read-out: MIC
  MIC: > 32 µg/mL
[1]; Escherichia coli, ATCCBAA2471, E. coli ATCC BAA-2471, read-out: MIC
  MIC: > 32 µg/mL
[1]; Escherichia coli, E. coli AR0048, read-out: MIC
  MIC: > 32 µg/mL
[1]; Escherichia coli, E. coli AR0055, read-out: MIC
  MIC: > 32 µg/mL
[1]; Escherichia coli, E. coli AR0058, read-out: MIC
  MIC: > 32 µg/mL
[1]; Escherichia coli, E. coli AR0061, read-out: MIC
  MIC: > 32 µg/mL
[1]; Escherichia coli, E. coli AR0067, read-out: MIC
  MIC: > 32 µg/mL
[1]; Escherichia coli, E. coli AR0069, read-out: MIC
  MIC: > 32 µg/mL
[1]; Escherichia coli, E. coli AR0077, read-out: MIC
  MIC: 8 µg/mL (≈ 23.2 µM)
[1]; Escherichia coli, E. coli AR0081, read-out: MIC
  MIC: 16 µg/mL (≈ 46.3 µM)
[1]; Escherichia coli, E. coli AR0084, read-out: MIC
  MIC: > 32 µg/mL
[1]; Escherichia coli, E. coli AR0085, read-out: MIC
  MIC: > 32 µg/mL
[1]; Escherichia coli, E. coli AR0086, read-out: MIC
  MIC: 8 µg/mL (≈ 23.2 µM)
[1]; Escherichia coli, E. coli AR0089, read-out: MIC
  MIC: > 32 µg/mL
[1]; Escherichia coli, E. coli AR0104, read-out: MIC
  MIC: 16 µg/mL (≈ 46.3 µM)
[1]; Escherichia coli, E. coli AR0114, read-out: MIC
  MIC: > 32 µg/mL
[1]; Escherichia coli, E. coli AR0118, read-out: MIC
  MIC: 16 µg/mL (≈ 46.3 µM)
[1]; Escherichia coli, E. coli AR0119, read-out: MIC
  MIC: > 32 µg/mL
[1]; Escherichia coli, E. coli AR0128, read-out: MIC
  MIC: 16 µg/mL (≈ 46.3 µM)
[1]; Escherichia coli, E. coli AR0137, read-out: MIC
  MIC: 16 µg/mL (≈ 46.3 µM)
[1]; Escherichia coli, E. coli AR0149, read-out: MIC
  MIC: > 32 µg/mL
[1]; Escherichia coli, E. coli AR0150, read-out: MIC
  MIC: 16 µg/mL (≈ 46.3 µM)
[1]; Escherichia coli, E. coli AR0151, read-out: MIC
  MIC: > 32 µg/mL
[1]; Escherichia coli, E. coli AR0162, read-out: MIC
  MIC: > 32 µg/mL
[1]; Escherichia coli, E. coli AR0346, read-out: MIC
  MIC: > 32 µg/mL
[1]; Escherichia coli, E. coli AR0348, read-out: MIC
  MIC: > 32 µg/mL
[1]; Escherichia coli, E. coli AR0350, read-out: MIC
  MIC: > 32 µg/mL
[1]; Escherichia coli, E. coli AR0493, read-out: MIC
  MIC: > 32 µg/mL
[1]; Escherichia coli, E. coli AR0494, read-out: MIC
  MIC: > 32 µg/mL
[1]; Escherichia coli, E. coli AR0495, read-out: MIC
  MIC: > 32 µg/mL
[1]; Escherichia coli, E. coli AR0541, read-out: MIC
  MIC: > 32 µg/mL
[1]; Escherichia coli, E. coli AR0543, read-out: MIC
  MIC: > 32 µg/mL
[1]; Escherichia coli, E. coli AR0546, read-out: MIC
  MIC: > 32 µg/mL
[1]; Escherichia coli, E. coli AR0551, read-out: MIC
  MIC: > 32 µg/mL
[1]; Escherichia coli, E. coli AR0559, read-out: MIC
  MIC: > 32 µg/mL
[1]; Escherichia coli, E. coli AR-0349 (colistin-resistant clinical isolate), read-out: MIC
  MIC: > 32 µg/mL
[1]; Escherichia coli, E. coli AR-0549, read-out: MIC
  MIC: > 32 µg/mL
[1]; Escherichia coli, E. coli ELZ 4004, read-out: MIC
  MIC: > 32 µg/mL
[1]; Escherichia coli, E. coli ELZ 4017, read-out: MIC
  MIC: 8 µg/mL (≈ 23.2 µM)
[1]; Escherichia coli, E. coli ELZ 4042, read-out: MIC
  MIC: > 32 µg/mL
[1]; Escherichia coli, E. coli ELZ 4072, read-out: MIC
  MIC: 8 µg/mL (≈ 23.2 µM)
[1]; Escherichia coli, E. coli ELZ 4081, read-out: MIC
  MIC: 4 µg/mL (≈ 11.6 µM)
[1]; Escherichia coli, E. coli ELZ 4139, read-out: MIC
  MIC: > 32 µg/mL
[1]; Escherichia coli, E. coli ELZ 4239, read-out: MIC
  MIC: > 32 µg/mL
[1]; Escherichia coli, E. coli ELZ 4277, read-out: MIC
  MIC: > 32 µg/mL
[1]; Escherichia coli, E. coli ELZ 4346, read-out: MIC
  MIC: > 32 µg/mL
[1]; Escherichia coli, E. coli ΔrfaC JW3596 (permeability mutant)
  MIC: 1 µg/mL (≈ 2.9 µM)
[1]; Escherichia coli, E. coli ΔtolC JW5503 (efflux-deficient)
  MIC: 0.06 µg/mL (≈ 0.174 µM)
[2]; E. cloacae AR-0163
  MIC: >32 µg/mL
[2]; E. cloacae ATCC BAA-2468
  MIC: >32 µg/mL
[2]; Enterobacter cloacae, ATCC29893, E. cloacae ATCC 29893, read-out: MIC
  MIC: > 32 µg/mL
[2]; Enterobacter cloacae, ATCCBAA2341, E. cloacae ATCC BAA-2341, read-out: MIC
  MIC: > 32 µg/mL
[2]; Enterobacter cloacae, ATCCBAA2468, E. cloacae ATCC BAA-2468, read-out: MIC
  MIC: > 32 µg/mL
[2]; Enterobacter cloacae, E. cloacae AR0032, read-out: MIC
  MIC: > 32 µg/mL
[2]; Enterobacter cloacae, E. cloacae AR0038, read-out: MIC
  MIC: > 32 µg/mL
[2]; Enterobacter cloacae, E. cloacae AR0050, read-out: MIC
  MIC: 8 µg/mL (≈ 23.2 µM)
[2]; Enterobacter cloacae, E. cloacae AR0053, read-out: MIC
  MIC: > 32 µg/mL
[2]; Enterobacter cloacae, E. cloacae AR0060, read-out: MIC
  MIC: 16 µg/mL (≈ 46.3 µM)
[2]; Enterobacter cloacae, E. cloacae AR0065, read-out: MIC
  MIC: 16 µg/mL (≈ 46.3 µM)
[2]; Enterobacter cloacae, E. cloacae AR0072, read-out: MIC
  MIC: > 32 µg/mL
[2]; Enterobacter cloacae, E. cloacae AR0073, read-out: MIC
  MIC: > 32 µg/mL
[2]; Enterobacter cloacae, E. cloacae AR0093, read-out: MIC
  MIC: > 32 µg/mL
[2]; Enterobacter cloacae, E. cloacae AR0132, read-out: MIC
  MIC: > 32 µg/mL
[2]; Enterobacter cloacae, E. cloacae AR0136, read-out: MIC
  MIC: > 32 µg/mL
[2]; Enterobacter cloacae, E. cloacae AR0154, read-out: MIC
  MIC: 8 µg/mL (≈ 23.2 µM)
[2]; Enterobacter cloacae, E. cloacae AR0164, read-out: MIC
  MIC: > 32 µg/mL
[2]; Enterobacter cloacae, E. cloacae AR0544, read-out: MIC
  MIC: > 32 µg/mL
[2]; Enterobacter cloacae, E. cloacae AR0545, read-out: MIC
  MIC: > 32 µg/mL
[2]; Enterobacter cloacae, E. cloacae AR-0163, read-out: MIC
  MIC: > 32 µg/mL
[3]
  solubility: 32 µg/mL (≈ 92.7 µM)
[4]
  resistance frequency: 9.2×10^−7
[5]; C57BL/6 mice, daily dosing of 200 mg/kg for 5 consecutive days
  tolerability: well tolerated
[5]; C57BL/6 mice, single dose of 200 mg/kg
  tolerability: well tolerated
[5]; mice, 100 mg/kg twice a day for three days
  tolerability: well-tolerated
[6]
  mice with septic infection rescued (survival): fared poorly
[7]
  activity against MDR clinical isolates: only minimal activity
